Test results published in publication PMC9367663 (Journal of Enzyme Inhibition and Medicinal Chemistry, 2022).
pIC50: −log10 of the molar value. Read-outs that look alike come from different tables or passages of the source.

Tested on: VSV*ΔG(Luc)-S virus harbouring the spike from the D614G variant
Assay type: cell-based, SARS-CoV-2

Compound: On1ccccc1=S [a, 1-hydroxy-2(1H)-pyridinethione]
- inhibition of viral entry (0.5 µM): 15.33%
- inhibition of viral entry (1 µM): 16.67%
- inhibition of viral entry (10 µM): 74.34%
- inhibition of viral entry (30 µM): 86.41%
- pIC50 (read-out: IC50 viral entry): 5.28
